Reference: patent US20240156847A1 (priority 2022, published 2024)

Columns and labels:
PRV-GFP strain = format: cell-based, Pseudorabies virus
PRV-HeNLH/2017 strain = format: cell-based, Pseudorabies virus
[1] = test system: PRV gE protein (PRV-HeNLH/2017 strain); format: cell-based, Pseudorabies virus

O=C(O)[C@H]1O[C@@H](Oc2cc3oc(-c4ccccc4)cc(=O)c3c(O)c2O)[C@H](O)[C@@H](O)[C@@H]1O [baicalin]
effect on cell viability (cytotoxicity) (PK-15 cells): no significant effect on cell viability | inhibition of proliferation of PRV-GFP strain (green fluorescence) (PRV-GFP strain): inhibited the proliferation of PRV-GFP strains at the using concentrations, and the inhibitory effect was more significant at 62.5 and 125 μM | inhibition of PRV proliferation (virus titer, TCID50) (PRV-HeNLH/2017 strain): significantly inhibited the proliferation of PRV on PK-15 cells | inhibition of expression of PRV gE protein [1]: significantly inhibited the expression of PRV gE protein
